Measurements reported in PubChem BioAssay (NCI).
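How tested: cells in 96-well plates exposed to compound for 48 hours at five concentrations. Definition used: TGI = concentration required for complete inhibition of growth.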

Columns and labels:
Assay in all cases: NCI-60 cell line screen, 48 h
SW-620 colon = tested on: SW-620 colon
SNB-19 CNS = tested on: SNB-19 CNS
U251 CNS = tested on: U251 CNS
MOLT-4 leukemia = tested on: MOLT-4 leukemia
UACC-62 melanoma = tested on: UACC-62 melanoma
A549 NSCLC = tested on: A549 NSCLC
IGROV1 ovarian = tested on: IGROV1 ovarian
COLO 205 colon = tested on: COLO 205 colon
HCT-116 colon = tested on: HCT-116 colon
SR leukemia = tested on: SR leukemia
RPMI-8226 leukemia = tested on: RPMI-8226 leukemia
HL-60(TB) leukemia = tested on: HL-60(TB) leukemia
HOP-92 NSCLC = tested on: HOP-92 NSCLC
OVCAR-4 ovarian = tested on: OVCAR-4 ovarian
MDA-N = tested on: MDA-N
MDA-MB-435 = tested on: MDA-MB-435
OVCAR-3 ovarian = tested on: OVCAR-3 ovarian
CCRF-CEM leukemia = tested on: CCRF-CEM leukemia
T-47D breast = tested on: T-47D breast
SK-MEL-28 melanoma = tested on: SK-MEL-28 melanoma
OVCAR-8 ovarian = tested on: OVCAR-8 ovarian
A498 renal = tested on: A498 renal
CAKI-1 renal = tested on: CAKI-1 renal
HCT-15 colon = tested on: HCT-15 colon
NCI-H522 lung = tested on: NCI-H522 lung
SN12C renal = tested on: SN12C renal
UO-31 renal = tested on: UO-31 renal
HCC-2998 colon = tested on: HCC-2998 colon
OVCAR-5 ovarian = tested on: OVCAR-5 ovarian
SK-MEL-2 melanoma = tested on: SK-MEL-2 melanoma
KM12 colon = tested on: KM12 colon
M14 melanoma = tested on: M14 melanoma
EKVX NSCLC = tested on: EKVX NSCLC
LOX IMVI melanoma = tested on: LOX IMVI melanoma
SK-MEL-5 melanoma = tested on: SK-MEL-5 melanoma
UACC-257 melanoma = tested on: UACC-257 melanoma
PC-3 prostate = tested on: PC-3 prostate
SF-268 CNS = tested on: SF-268 CNS
MCF7 breast = tested on: MCF7 breast
BT-549 breast = tested on: BT-549 breast
HOP-62 NSCLC = tested on: HOP-62 NSCLC
NCI/ADR-RES ovarian = tested on: NCI/ADR-RES ovarian
SF-295 CNS = tested on: SF-295 CNS
HS 578T breast = tested on: HS 578T breast
K-562 leukemia = tested on: K-562 leukemia
786-0 renal = tested on: 786-0 renal
MALME-3M melanoma = tested on: MALME-3M melanoma
NCI-H460 lung = tested on: NCI-H460 lung
ACHN renal = tested on: ACHN renal
HT29 colon = tested on: HT29 colon
SK-OV-3 ovarian = tested on: SK-OV-3 ovarian
DU-145 prostate = tested on: DU-145 prostate
SF-539 CNS = tested on: SF-539 CNS
TK-10 renal = tested on: TK-10 renal
SNB-75 CNS = tested on: SNB-75 CNS
NCI-H23 lung = tested on: NCI-H23 lung
NCI-H226 lung = tested on: NCI-H226 lung
MDA-MB-231 breast = tested on: MDA-MB-231 breast

## COc1ccc(C2=Nn3c(nnc3-c3ccccc3)S/C2=C\c2ccc(-c3ccc([N+](=O)[O-])cc3)o2)cc1
SW-620 colon
  TGI: > 100 µM
SNB-19 CNS
  TGI: > 100 µM
U251 CNS
  TGI: > 100 µM
MOLT-4 leukemia
  TGI: 76.6 µM
UACC-62 melanoma
  TGI: > 100 µM
A549 NSCLC
  TGI: > 100 µM
IGROV1 ovarian
  TGI: > 100 µM
COLO 205 colon
  TGI: 70 µM
HCT-116 colon
  TGI: > 100 µM
SR leukemia
  TGI: > 100 µM
RPMI-8226 leukemia
  TGI: 80.2 µM
HL-60(TB) leukemia
  TGI: 59 µM
HOP-92 NSCLC
  TGI: > 100 µM
OVCAR-4 ovarian
  TGI: > 100 µM
MDA-N
  TGI: > 100 µM
MDA-MB-435
  TGI: 51.3 µM
OVCAR-3 ovarian
  TGI: > 100 µM
CCRF-CEM leukemia
  TGI: 32.7 µM
T-47D breast
  TGI: > 100 µM
SK-MEL-28 melanoma
  TGI: > 100 µM
OVCAR-8 ovarian
  TGI: > 100 µM
A498 renal
  TGI: > 100 µM
CAKI-1 renal
  TGI: > 100 µM
HCT-15 colon
  TGI: > 100 µM
NCI-H522 lung
  TGI: 81.8 µM
SN12C renal
  TGI: > 100 µM
UO-31 renal
  TGI: > 100 µM
HCC-2998 colon
  TGI: > 100 µM
OVCAR-5 ovarian
  TGI: > 100 µM
SK-MEL-2 melanoma
  TGI: 67.6 µM
KM12 colon
  TGI: > 100 µM
M14 melanoma
  TGI: 86.1 µM
EKVX NSCLC
  TGI: > 100 µM
LOX IMVI melanoma
  TGI: > 100 µM
SK-MEL-5 melanoma
  TGI: > 100 µM
UACC-257 melanoma
  TGI: > 100 µM
PC-3 prostate
  TGI: > 100 µM
SF-268 CNS
  TGI: > 100 µM
MCF7 breast
  TGI: > 100 µM
BT-549 breast
  TGI: > 100 µM
HOP-62 NSCLC
  TGI: > 100 µM
NCI/ADR-RES ovarian
  TGI: > 100 µM
SF-295 CNS
  TGI: > 100 µM
HS 578T breast
  TGI: > 100 µM
K-562 leukemia
  TGI: 88.8 µM
786-0 renal
  TGI: > 100 µM
MALME-3M melanoma
  TGI: > 100 µM
NCI-H460 lung
  TGI: > 100 µM
ACHN renal
  TGI: > 100 µM
HT29 colon
  TGI: 90.3 µM
SK-OV-3 ovarian
  TGI: > 100 µM

## CCCCC1C=Cn2c(=O)oc3c(OC(C)C)c(OC(C)C)c(O)c1c32 (stereo unspecified)
SW-620 colon
  TGI: 27.2 µM
SNB-19 CNS
  TGI: 68.2 µM
U251 CNS
  TGI: 29.4 µM
DU-145 prostate
  TGI: 34.2 µM
MOLT-4 leukemia
  TGI: 27.8 µM
UACC-62 melanoma
  TGI: 28.8 µM
SF-539 CNS
  TGI: 38.7 µM
A549 NSCLC
  TGI: 46.6 µM
COLO 205 colon
  TGI: 30.3 µM
HCT-116 colon
  TGI: 34.9 µM
HL-60(TB) leukemia
  TGI: 22.8 µM
HOP-92 NSCLC
  TGI: 47.2 µM
OVCAR-4 ovarian
  TGI: 42.8 µM
TK-10 renal
  TGI: 31.4 µM
MDA-N
  TGI: 55.5 µM
MDA-MB-435
  TGI: 26.8 µM
OVCAR-3 ovarian
  TGI: 30.6 µM
CCRF-CEM leukemia
  TGI: 25.6 µM
T-47D breast
  TGI: 27 µM
SK-MEL-28 melanoma
  TGI: 39.3 µM
OVCAR-8 ovarian
  TGI: 29.5 µM
A498 renal
  TGI: 32.3 µM
CAKI-1 renal
  TGI: 37.5 µM
SNB-75 CNS
  TGI: 47.5 µM
NCI-H23 lung
  TGI: 32.6 µM
HCT-15 colon
  TGI: 31.4 µM
NCI-H522 lung
  TGI: 24.7 µM
SN12C renal
  TGI: 49.1 µM
NCI-H226 lung
  TGI: 27.5 µM
UO-31 renal
  TGI: 27.8 µM
OVCAR-5 ovarian
  TGI: 34.2 µM
SK-MEL-2 melanoma
  TGI: 37.7 µM
MDA-MB-231 breast
  TGI: 33.1 µM
KM12 colon
  TGI: 27.4 µM
M14 melanoma
  TGI: 46.3 µM
EKVX NSCLC
  TGI: 83.1 µM
LOX IMVI melanoma
  TGI: 27.4 µM
SK-MEL-5 melanoma
  TGI: 27.8 µM
UACC-257 melanoma
  TGI: 41.7 µM
PC-3 prostate
  TGI: > 100 µM
SF-268 CNS
  TGI: 44.9 µM
MCF7 breast
  TGI: 29.2 µM
BT-549 breast
  TGI: 34.7 µM
HOP-62 NSCLC
  TGI: 38 µM
SF-295 CNS
  TGI: 40 µM
HS 578T breast
  TGI: 67 µM
786-0 renal
  TGI: 48.6 µM
NCI-H460 lung
  TGI: 29.6 µM
ACHN renal
  TGI: > 100 µM
HT29 colon
  TGI: 29.2 µM
SK-OV-3 ovarian
  TGI: 84.3 µM

## COc1cc2c3c(c1O)N=NC=3CCN=2
SW-620 colon
  TGI: 31.7 µM
SNB-19 CNS
  TGI: > 100 µM
U251 CNS
  TGI: 30.6 µM
MOLT-4 leukemia
  TGI: 50.4 µM
UACC-62 melanoma
  TGI: 30.7 µM
SF-539 CNS
  TGI: 35.5 µM
A549 NSCLC
  TGI: 66.4 µM
IGROV1 ovarian
  TGI: 34 µM
COLO 205 colon
  TGI: 35.2 µM
HCT-116 colon
  TGI: 28.1 µM
SR leukemia
  TGI: 42.3 µM
RPMI-8226 leukemia
  TGI: 31.1 µM
HL-60(TB) leukemia
  TGI: 14.8 µM
TK-10 renal
  TGI: 52.3 µM
MDA-N
  TGI: 25.1 µM
MDA-MB-435
  TGI: 24.5 µM
OVCAR-3 ovarian
  TGI: 31 µM
T-47D breast
  TGI: 23.3 µM
SK-MEL-28 melanoma
  TGI: 32.1 µM
OVCAR-8 ovarian
  TGI: 30.9 µM
A498 renal
  TGI: 75.4 µM
NCI-H23 lung
  TGI: 38.2 µM
HCT-15 colon
  TGI: > 100 µM
NCI-H522 lung
  TGI: 19.4 µM
SN12C renal
  TGI: 29.3 µM
UO-31 renal
  TGI: 62.5 µM
HCC-2998 colon
  TGI: > 100 µM
OVCAR-5 ovarian
  TGI: 34.4 µM
SK-MEL-2 melanoma
  TGI: 30.9 µM
MDA-MB-231 breast
  TGI: 29.8 µM
KM12 colon
  TGI: 88.4 µM
M14 melanoma
  TGI: 28.8 µM
EKVX NSCLC
  TGI: 30.7 µM
LOX IMVI melanoma
  TGI: 18 µM
SK-MEL-5 melanoma
  TGI: 32.5 µM
UACC-257 melanoma
  TGI: 29.1 µM
PC-3 prostate
  TGI: 84.8 µM
MCF7 breast
  TGI: 20.2 µM
BT-549 breast
  TGI: 31.7 µM
HOP-62 NSCLC
  TGI: 97.3 µM
NCI/ADR-RES ovarian
  TGI: > 100 µM
SF-295 CNS
  TGI: 50.9 µM
HS 578T breast
  TGI: > 100 µM
K-562 leukemia
  TGI: 18.3 µM
786-0 renal
  TGI: 32.7 µM
MALME-3M melanoma
  TGI: 30.2 µM
NCI-H460 lung
  TGI: 80.1 µM
ACHN renal
  TGI: 33.8 µM
HT29 colon
  TGI: 28.8 µM
